According to patent US20250340591A1, “COMPOSITION FOR PREVENTING OR TREATING INFLAMMATORY BOWEL DISEASE CONTAINING NOVEL COMPOUND” (ANYGEN CO., LTD., priority 2021, published 2025):

Experiments:
[1] = target: T1, neuromedin U receptor (NMU1) (Homo sapiens, UniProt Q9HB89); assay: luciferase assay system, ghrelin receptor family selectivity; format: cell-based; settings: compared with intrinsic ligand, FIG. 74
T1 construct: expressed in transfected cells
T1 sequence (Q9HB89 1-426): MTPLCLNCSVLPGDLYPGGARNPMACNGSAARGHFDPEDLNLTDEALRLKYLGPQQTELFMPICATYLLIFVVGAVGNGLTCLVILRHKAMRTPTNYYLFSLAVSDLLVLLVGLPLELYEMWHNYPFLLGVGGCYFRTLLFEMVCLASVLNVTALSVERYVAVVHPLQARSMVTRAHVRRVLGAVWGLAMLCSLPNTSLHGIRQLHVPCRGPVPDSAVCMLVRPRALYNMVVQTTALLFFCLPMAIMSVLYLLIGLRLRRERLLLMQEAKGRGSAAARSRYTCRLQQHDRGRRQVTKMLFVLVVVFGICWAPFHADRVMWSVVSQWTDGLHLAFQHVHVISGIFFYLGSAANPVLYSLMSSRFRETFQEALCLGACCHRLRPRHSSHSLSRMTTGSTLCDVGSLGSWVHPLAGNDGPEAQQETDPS
Protocol: (§1) In addition, through the activity test of the HKFY derivatives for similar receptors to GPR39, ghrelin receptor family (ghrelin receptor (GHSR), motilin receptor (MTLR), neurotensin receptor (NTSR1 & NTSR2), neuromedin U receptor (NMU1 & NMU2), TRH (thyrotropin releasing hormone) receptor (TRHR)), the selectivity and specificity for the GPR39 receptor were confirmed.
(§2) Specifically, the degree of activity between the intrinsic ligand and HKFY-34 for each receptor was analyzed using a luciferase assay system (FIG. 74).

[2] = target: T2, TRH (thyrotropin releasing hormone) receptor (TRHR) (Homo sapiens, UniProt P34981); assay: as above; format: cell-based; settings: compared with intrinsic ligand, FIG. 74
T2 construct: expressed in transfected cells
T2 sequence (P34981 1-398): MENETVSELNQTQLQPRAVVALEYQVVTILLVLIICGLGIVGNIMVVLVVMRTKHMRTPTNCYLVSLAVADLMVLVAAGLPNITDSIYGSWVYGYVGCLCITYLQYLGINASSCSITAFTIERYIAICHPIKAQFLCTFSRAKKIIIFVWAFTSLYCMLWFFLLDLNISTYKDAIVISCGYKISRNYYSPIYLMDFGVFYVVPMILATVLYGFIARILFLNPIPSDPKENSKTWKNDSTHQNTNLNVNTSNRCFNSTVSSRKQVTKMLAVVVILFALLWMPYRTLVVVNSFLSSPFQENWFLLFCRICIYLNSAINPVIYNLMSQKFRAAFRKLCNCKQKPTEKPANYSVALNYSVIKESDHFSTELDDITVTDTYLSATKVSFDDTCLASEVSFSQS
Protocol: as §1, §2

[3] = target: T3, neurotensin receptor (NTSR2) (Homo sapiens, UniProt O95665); assay: as above; format: cell-based; settings: compared with intrinsic ligand, FIG. 74
T3 construct: expressed in transfected cells
Protocol: as §1, §2

[4] = target: T4, neurotensin receptor (NTSR1) (Homo sapiens, UniProt P30989); assay: as above; format: cell-based; settings: compared with intrinsic ligand, FIG. 74
T4 construct: expressed in transfected cells
Protocol: as §1, §2

[5] = target: T5, neuromedin U receptor (NMU2) (Homo sapiens, UniProt Q9GZQ4); assay: as above; format: cell-based; settings: compared with intrinsic ligand, FIG. 74
T5 construct: expressed in transfected cells
Protocol: as §1, §2

motilin receptor (MTLR) = target: T6, motilin receptor (MTLR) (Homo sapiens, UniProt O43193); assay: as above; format: cell-based; settings: compared with intrinsic ligand, FIG. 74
T6 construct: expressed in transfected cells
Protocol: as §1, §2

ghrelin receptor (GHSR) = target: T7, ghrelin receptor (GHSR) (Homo sapiens, UniProt Q92847); assay: as above; format: cell-based; settings: compared with intrinsic ligand, FIG. 74
T7 construct: expressed in transfected cells
Protocol: as §1, §2

GPR39 = target: T8, GPR39 (Homo sapiens, UniProt O43194); assay: calcium influx assay system (aequorin, CV-1 cells); format: cell-based; set-up: host or cells: CV-1 fibroblast cell line, lipofectamine transfection; settings: CV-1 transfected with hGPR39, Gαq
T8 sequence (O43194 1-453): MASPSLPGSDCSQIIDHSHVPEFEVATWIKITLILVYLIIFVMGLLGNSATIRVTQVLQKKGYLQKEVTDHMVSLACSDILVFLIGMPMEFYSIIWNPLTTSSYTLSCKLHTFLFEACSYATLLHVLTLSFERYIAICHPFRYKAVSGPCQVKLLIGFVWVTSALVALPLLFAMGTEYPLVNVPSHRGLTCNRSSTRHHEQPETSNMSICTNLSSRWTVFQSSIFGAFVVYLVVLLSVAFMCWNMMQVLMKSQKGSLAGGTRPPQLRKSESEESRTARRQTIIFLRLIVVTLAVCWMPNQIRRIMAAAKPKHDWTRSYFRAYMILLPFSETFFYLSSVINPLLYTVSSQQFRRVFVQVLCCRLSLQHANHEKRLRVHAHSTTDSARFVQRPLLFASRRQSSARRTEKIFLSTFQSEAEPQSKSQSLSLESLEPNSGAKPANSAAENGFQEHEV
From the text: After culturing, the degree of binding of calcium activated by activated GPR39 to aequrin was quantified using a luminometer (bottom in FIG. 73).

HT-29 cells = assay: LPS-induced inflammation cell model of inflammatory bowel disease (HT-29), qPCR and ELISA; format: cell-based; settings: HT-29, 1 μg/mL LPS, vs LPS alone
Protocol: In order to confirm the effect of HKFY-34 on anti-inflammatory action, which is one of the gastrointestinal tract protective function (barrier function) by GPR39, the anti-inflammatory activity of HKFY-34 was evaluated in a cell model of inflammatory bowel disease (IBD).
Specifically, the HT-29 cells were treated with 1 μg/mL LPS to induce inflammation and prepare an inflammatory bowel disease model, and were treated with HKFY-34 at different concentrations. Thereafter, the expression levels of mRNA (FIG. 81) and protein (FIG. 82) of inflammation factors for ulcerative colitis were measured through qPCR and ELISA.

[6] = tested on: ulcerative colitis-induced wild type mice; assay: DSS-induced ulcerative colitis in wild type littermate mice; format: in vivo
Protocol: In order to confirm the effect of HKFY-34 in an inflammatory bowel disease model using GPR39 as a target substance, a disease model of ulcerative colitis was prepared using GPR39 deficient mice (GPR39 knock out (KO), Gpr39^−/−). At this time, wild type mice born from a litter were set as a control group for each treated group of GPR39 deficient mice.
Specifically, an animal model of ulcerative colitis was prepared by feeding GPR39 deficient mice (Lexicon pharmaceuticals) and wild type mice with water containing 3% DSS in the same manner as in Experimental Example 7. GPR39 KO mice fed with only DSS (vehicle+3% DSS) were set as a negative control group, and GPR39 KO mice administered with HKFY-34 (10 mg/kg) (HKFY-34 10 mg/kg+3% DSS) were set as a test group. Intraperitoneal administration was performed once a day for 5 days.

T7 sequence (Q92847 whole entry, species assumed): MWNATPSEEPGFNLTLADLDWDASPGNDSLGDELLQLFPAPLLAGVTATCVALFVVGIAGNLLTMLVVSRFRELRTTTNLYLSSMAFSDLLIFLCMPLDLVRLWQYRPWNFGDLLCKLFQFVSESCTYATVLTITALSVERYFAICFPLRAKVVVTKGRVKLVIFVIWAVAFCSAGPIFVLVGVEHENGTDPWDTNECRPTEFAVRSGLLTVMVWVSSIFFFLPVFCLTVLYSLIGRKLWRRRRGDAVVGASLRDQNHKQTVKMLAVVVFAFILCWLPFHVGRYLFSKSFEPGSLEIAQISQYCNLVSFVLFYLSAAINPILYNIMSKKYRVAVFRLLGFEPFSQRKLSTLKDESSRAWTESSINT
T3 sequence (O95665 whole entry, species assumed): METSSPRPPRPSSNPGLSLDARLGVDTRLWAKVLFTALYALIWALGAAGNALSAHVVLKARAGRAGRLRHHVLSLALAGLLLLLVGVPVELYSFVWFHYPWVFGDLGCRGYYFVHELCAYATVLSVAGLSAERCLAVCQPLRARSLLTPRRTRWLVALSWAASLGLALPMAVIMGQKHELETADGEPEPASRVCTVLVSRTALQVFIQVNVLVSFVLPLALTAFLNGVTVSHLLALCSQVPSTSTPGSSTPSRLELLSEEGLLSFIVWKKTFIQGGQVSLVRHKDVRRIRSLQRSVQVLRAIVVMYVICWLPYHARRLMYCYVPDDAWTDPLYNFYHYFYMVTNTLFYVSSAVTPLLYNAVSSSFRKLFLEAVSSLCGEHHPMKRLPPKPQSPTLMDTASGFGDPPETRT
T4 sequence (P30989 whole entry, species assumed): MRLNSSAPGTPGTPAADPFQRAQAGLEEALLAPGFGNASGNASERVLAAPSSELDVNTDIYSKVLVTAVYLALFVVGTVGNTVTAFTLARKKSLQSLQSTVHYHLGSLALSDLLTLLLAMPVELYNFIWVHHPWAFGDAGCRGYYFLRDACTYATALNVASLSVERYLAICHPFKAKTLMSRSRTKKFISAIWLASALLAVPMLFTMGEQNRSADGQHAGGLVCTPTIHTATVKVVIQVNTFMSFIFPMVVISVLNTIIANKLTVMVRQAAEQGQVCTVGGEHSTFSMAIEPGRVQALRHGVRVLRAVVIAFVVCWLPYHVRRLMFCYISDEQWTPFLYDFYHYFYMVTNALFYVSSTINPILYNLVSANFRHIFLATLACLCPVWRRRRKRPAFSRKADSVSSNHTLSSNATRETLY
T5 sequence (Q9GZQ4 whole entry, species assumed): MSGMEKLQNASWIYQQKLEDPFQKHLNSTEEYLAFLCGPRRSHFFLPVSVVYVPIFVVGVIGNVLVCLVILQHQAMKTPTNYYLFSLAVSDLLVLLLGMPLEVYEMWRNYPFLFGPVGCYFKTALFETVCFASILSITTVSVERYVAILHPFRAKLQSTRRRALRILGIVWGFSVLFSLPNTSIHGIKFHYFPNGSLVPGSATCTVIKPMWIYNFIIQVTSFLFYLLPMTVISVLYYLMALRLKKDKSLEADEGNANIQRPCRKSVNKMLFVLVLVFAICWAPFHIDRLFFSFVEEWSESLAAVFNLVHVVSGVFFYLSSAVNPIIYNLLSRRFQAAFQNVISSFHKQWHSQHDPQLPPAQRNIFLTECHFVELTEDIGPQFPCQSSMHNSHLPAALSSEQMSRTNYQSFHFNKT
T6 sequence (O43193 whole entry, species assumed): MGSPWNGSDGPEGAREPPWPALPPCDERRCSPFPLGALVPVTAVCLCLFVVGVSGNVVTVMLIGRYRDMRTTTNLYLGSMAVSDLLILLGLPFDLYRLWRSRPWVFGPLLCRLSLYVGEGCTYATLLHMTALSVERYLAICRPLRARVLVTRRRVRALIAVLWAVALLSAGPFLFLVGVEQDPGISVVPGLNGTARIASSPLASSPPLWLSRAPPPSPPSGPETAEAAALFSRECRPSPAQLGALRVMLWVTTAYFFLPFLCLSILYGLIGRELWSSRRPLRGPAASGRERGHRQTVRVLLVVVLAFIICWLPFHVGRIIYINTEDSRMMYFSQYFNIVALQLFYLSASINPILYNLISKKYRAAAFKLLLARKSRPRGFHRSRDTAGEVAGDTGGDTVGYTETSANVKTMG

CCCCCCCC(=O)NCCCC[C@H](NC(=O)[C@@H](N)Cc1cn(C(c2ccccc2)c2ccccc2)cn1)C(=O)N[C@H](Cc1ccc(C)cc1)C(=O)N[C@@H](Cc1ccc(O)cc1)C(=O)O [HKFY-34, ((R)-2-((S)-2-((S)-2-amino-3-(1-benzhydryl-1H-imidazol-4-yl)propanamido)-6-octanamidohexanamido)-3-(p-tolyl)propanoyl)-L-tyrosine]
activity for NMU1 [1]: very low | activity for TRHR [2]: very low | activity for NTSR2 [3]: very low | activity for NTSR1 [4]: very low | activity for NMU2 [5]: very low | activity for MTLR (motilin receptor (MTLR)): very low | activity for GHSR (ghrelin receptor (GHSR)): very low | Ca2+ influx assay ECmax (−fold induction over basal) (GPR39): 2.4 ± 4.59 fold induction over basal | secretion level of IL-1β (HT-29 cells; ELISA, FIG. 82): significantly decreased by HKFY-34 treatment in a dose-dependent manner | secretion level of IL-6 (HT-29 cells; ELISA, FIG. 82): significantly decreased by HKFY-34 treatment in a dose-dependent manner | secretion level of IL-8 (HT-29 cells; ELISA, FIG. 82): significantly decreased by HKFY-34 treatment in a dose-dependent manner | secretion level of TNF-α (HT-29 cells; ELISA, FIG. 82): significantly decreased by HKFY-34 treatment in a dose-dependent manner | mRNA expression level of IL-1β (HT-29 cells; qPCR, FIG. 81): significantly decreased by HKFY-34 treatment in a dose-dependent manner | mRNA expression level of IL-6 (HT-29 cells; qPCR, FIG. 81): significantly decreased by HKFY-34 treatment in a dose-dependent manner | mRNA expression level of IL-8 (HT-29 cells; qPCR, FIG. 81): significantly decreased by HKFY-34 treatment in a dose-dependent manner | mRNA expression level of TNF-α (HT-29 cells; qPCR, FIG. 81): significantly decreased by HKFY-34 treatment in a dose-dependent manner | decrease in colon length ([6]; 10 mg/kg intraperitoneal for 5 days, FIG. 92): inhibited | damage due to inflammation of colon tissue (H&E staining) ([6]; 10 mg/kg intraperitoneal for 5 days, FIG. 95): reduced | body weight loss ([6]; 10 mg/kg intraperitoneal once a day for 5 days, 3% DSS, FIG. 91): inhibited
